The text below walks through data of patent publication US5874583A, “2,3-dihydro-1H-isoindole derivatives” (Hoechst Marion Roussel Inc., priority 1997, dated 1999).

SMILES strings stand for the structures. Structures can show the parent of a compound that is named as a salt.

The assay has as its system serotonin (5-hydroxytryptamine (5HT)) uptake. The experiment in a line: [3H]-Serotonin uptake in rat whole brain and hypothalamic synaptosomes. The format is biochemical. Particulars: [3H]-5HT 50 nM, 37° C., 5 minutes. On the procedure: [^3 H]-Serotonin Uptake in Rat Whole Brain and Hypothalamic Synaptosomes
This activity is determined in an assay which measures [^3 H]-serotoninuptake in rat whole brain and hypothalamic synaptosomes. The assay described below is used as a biochemical screen for potential antidepressants which block serotonin (5-hydroxytryptamine (5HT)) uptake.
Male CR Wistar rats (100-125 g)
1. Krebs-Henseleit Bicarbonate Buffer, pH 7.4 (KHBB):
The batch is aerated for 60 minutes with 95% 02 /5% CO2, the pH is checked to insure it is at 7.4±0.1, then add bovine serum albumin (Sigma cat# A-7906) 1 mg/ml.
3. Sucrose solution: 0.32M sucrose containing 5 mM HEPES and 0.1 mM EDTA; pH to 7.3 using Tris base.
4. A 0.1 mM stock solution of serotonin creatinine SO4 is made up in 0.01N HCl. This is used to dilute the specific activity of the radiolabeled 5HT.
The final desired concentration of [^3 H]-5HT in the assay is 50 nM. The dilution factor is 0.8. The KHBB is made up to contain 62.5 nM of [^3 H]-5HT.
6. For most assays, a 0.5 mM stock solution of the test compound is made up initially in either 10 μl of glacial acetic acid, 100 μl DMSO or 10 μl of the recrystallization solvent, to which is added approximately 10 ml of distilled water. Compounds are initially screened in duplicate at 3 concentrations (10^-8, 10^-7 and 10^-6 M) made up in water.
The Percoll method for preparing synaptosomes has been modified from Nagy, A., Delgado-Escueta, A. V. J. Neurochem. 43, 1114 (1984) and Dunkley, P. R., Jarvie, R. E., Heath, J. W., Kidd, G. J., Rostas, J. A. P. Brain Research 372, 115 (1986). Male Wistar rats are decapitated and the brain rapidly removed. Whole brain (minus cerebellum) is weighed and homogenized in 15 volumes of ice cold Sucrose solution using a Potter-Elvejhem homogenizer. The following procedures are performed on ice. Homogenization should be done with 4-5 up and down strokes at medium speeds (setting 4.5 to 5) to minimize synaptosome lysis. The homogenate is centrifuged at 1000 g (3000 rpm, Sorvall SS-34 rotor) for 10 minutes at 0°-4° C.
The Percoll gradient tubes are carefully placed into a Beckman SW-28 swinging bucket rotor and spun in a Beckman XL90 ultracentrifuge using the following program: speed, 11,000 rpm (15,000 g) for 30 minutes at 4° C.; slow acceleration and deceleration (acceleration setting 9; deceleration setting 3). Tubes are carefully removed, and the top layer and the top part of the middle (red) layer are discarded using a pasteur pipette. The synaptosomes are located in the white fluffy band at the interface between the 10% and 21% Percoll layers. This is carefully removed, placed in a centrifuge tube, diluted with KHBB and spun at 21,000 g (13,000 rpm, Sorvall SS-34 rotor). The pellet (synaptosomes) is resuspended in KHBB (10 vol per gram original brain wet weight; 1 brain minus cerebellum weighs approximately 1.2 g; 2.5 brains are needed per typical assay).
200 μl of the tissue suspension are added to each of 24 tubes (at a time) containing the 20 μl of vehicle or drug on ice. Three minutes later, 800 μl of KHBB containing [^3 H]-5HT are added, and the tubes are vortexed. The rack containing the 24 tubes is moved from the ice bath to a water bath set at 37° C. The tubes are incubated for 5 minutes under 95% O2 /5% CO2.
As to `CCC1c2ccccc2CN1c1ccncc1` (centres unmarked) [2,3-Dihydro-1-Ethyl-2-(4-Pyridyl)-1H-Isoindole Maleate], the IC50 – broadly, the point on the concentration scale where inhibition reaches its midpoint – amounted to 1140 nM. For `c1ccc2c(c1)CN(c1ccncc1)C2` [2,3-Dihydro-2-(4-Pyridyl)-1H-Isoindole Maleate], the IC50 is 880 nM. `CC1c2ccccc2CN1c1ccncc1` (centres unmarked) [2,3-Dihydro-1-Methyl-2-(4-Pyridyl)-1H-Isoindole Fumarate] registered a half-maximal inhibitory concentration (IC50) of 736 nM. To `CC(C)CC1c2ccccc2CN1c1ccncc1` (centres unmarked) [2,3-dihydro-1-(2-methylpropyl)-2-(4-pyridyl)-1H-isoindole maleate] belongs 849 nM. For the compound `CCCC1c2ccccc2CN1c1ccncc1` (centres unmarked) [2,3-Dihydro-1-Propyl-2-(4-Pyridyl)-1H-Isoindole Maleate], the half-maximal inhibitory concentration (IC50) worked out at 725 nM.
